The series in a line: drug release from the sustained release oral osmotic dosage form in artificial gastric fluid. In kind it is physicochemical. To be noted: release of prodrug from the osmotic sustained release dosage form of Example 1 (700 mg drug composition, one 10 mil passageway). As for the experimental part:
The bilayered arrangements next are coated with a semipermeable wall. The wall-forming composition comprises 100% cellulose acetate having a ˜40% acetyl content. The polymer is dissolved in 100% acetone to make a 4% solid solution. The wall forming composition is sprayed at 26 grams/min onto and around the bilayer cores in a tablet coater until a dry weight of 90 mg/core is achieved. Next, one 10 mil (0.254 mm) exit passageway is mechanically drilled through the semipermeable wall to connect the drug layer with the exterior of the dosage system. The residual solvent is removed by first drying for 120 hours at 50° C. and 30% relative humidity, then the systems are dried for 2 hours at 50° C. to remove excess moisture. The drug dosage form produced by this process provides: ˜90 wt % 1-{[(α-isobutanoyloxyethoxy)carbonyl]aminomethyl}-1-cyclohexane acetic acid, 4 wt % hydroxypropylmethylcellulose of 11,200 molecular weight, 4 wt % polyethylene oxide of 5,000,000 molecular weight and 1 wt % magnesium stearate in the drug layer. The push composition comprises 63.7 wt % polyethylene oxide of 7,500,000 molecular weight, 30 wt % sodium chloride, 5 wt % hydroxypropylmethylcellulose of 11,200 molecular weight, 1 wt % red ferric oxide, 0.25 wt % magnesium stearate, and 0.075 wt % of butylated hydroxytoluene. The wall comprises 100 wt % cellulose acetate comprising a ˜40% acetyl content. […]

Some results are limits rather than exact numbers.

On to `CC(OC(=O)NCC1(CC(=O)O)CCCCC1)OC(=O)C(C)C` (stereo not drawn) [1-{[(α-isobutanoyloxyethoxy)carbonyl]aminomethyl}-1-cyclohexane acetic acid], for which the release rate is above 20 mg/h.

The values above are taken from patent US8114909B2, “Treating or preventing restless legs syndrome using prodrugs of GABA analogs” (XenoPort, Inc., priority 2003, dated 2012).
